Reference: patent US11214594B2, “Antimicrobial peptide having synergistic antibacterial effect with antibiotics on multidrug resistant bacteria, and use thereof” (priority 2016, dated 2022)
In brackets after ≈: the same amount, converted by molar mass. Read-outs that look alike come from different tables or passages of the source. Where a SMILES comes first, the peptide text is derived from it. [ ]: non-standard residue; d: D form.

Assays:
E. coli [1] = assay: microbe, parasite or virus in culture; type: cell-based, Escherichia coli; settings: 16 h
Method in brief: (§1)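 Peptides were serially diluted twofold in Mueller-Hinton medium and combined 1:1 with bacterial suspensions prepared at 2×10^6 CFU. Readout was the minimal inhibitory concentration, i.e. the lowest concentration with no growth.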

MDREC 1229 [2] = assay: microbe, parasite or virus in culture; type: cell-based, Escherichia coli
Method in brief: as §1

P. aeruginosa = assay: microbe, parasite or virus in culture; type: cell-based, Pseudomonas aeruginosa
Method in brief: as §1

A. baumannii [3] = assay: microbe, parasite or virus in culture; type: cell-based, Acinetobacter baumannii
Method in brief: as §1

MDRAB 12035 [4] = assay: microbe, parasite or virus in culture; type: cell-based, Acinetobacter baumannii
Method in brief: as §1

MDRST 8009 = type: cell-based, Salmonella typhimurium; settings: agent alone
Method in brief: as §1

B. subtilis = assay: microbe, parasite or virus in culture; type: cell-based, Bacillus subtilis
Method in brief: as §1

S. epidermidis = assay: microbe, parasite or virus in culture; type: cell-based, Staphylococcus epidermidis
Method in brief: as §1

S. aureus = assay: microbe, parasite or virus in culture; type: cell-based, Staphylococcus aureus
Method in brief: as §1

E. coli [5] = assay: MIC of antibiotic during combined treatment with antimicrobial peptide; type: cell-based, Escherichia coli; settings: for Antibiotic MIC, Erythromycin / Antibiotic MIC, Linezolid / Antibiotic MIC, Vancomycin: E. coli
Method in brief: (§2)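 Antibiotic diluted in MH medium, dispensed per well with peptide; setup repeated with roles reversed; MIC read per combination.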

A. baumannii [6] = assay: as above; type: cell-based, Acinetobacter baumannii; settings: for Antibiotic MIC, Erythromycin / Antibiotic MIC, Linezolid / Antibiotic MIC, Vancomycin: A. baumannii
Method in brief: as §2

E. coli [7] = type: cell-based, Escherichia coli; settings: E. coli
Method in brief: (§3)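 Antibiotic MIC came from antibiotic dilutions added to bacteria (2×10^6 CFU/ml, MH medium) already combined with peptide serially diluted 2:1 from its own MIC. Swapping the roles of the two agents gave the peptide MIC.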

MDREC 1229 [8] = type: cell-based, Escherichia coli
Method in brief: as §3

A. baumannii [9] = assay: MIC of antimicrobial peptide during combined treatment with antibiotic; type: cell-based, Acinetobacter baumannii
Method in brief: as §3

MDRAB 12035 [10] = assay: as above; type: cell-based, Acinetobacter baumannii
Method in brief: as §3

[11] = combined with peptide at 1 μg/ml
[12] = combined with peptide at 2 μg/ml
[13] = combined with peptide at 4 μg/ml
[14] = combined with peptide at 6 μg/ml
[15] = combined with peptide at 8 μg/ml
[16] = combined with peptide at 16 μg/ml
[17] = combined with peptide at 32 μg/ml
[18] = combined with peptide at 64 μg/ml
[19] = linezolid 64 μg/ml (Conc./MIC 1/8)
[20] = linezolid 512 μg/ml (Conc./MIC 1)
[21] = vancomycin 512 μg/ml (Conc./MIC 1/2)
[22] = vancomycin 1024 μg/ml (Conc./MIC 1)
[23] = erythromycin 4 μg/ml (Conc./MIC 1/8)
[24] = erythromycin 8 μg/ml (Conc./MIC 1/4)
[25] = erythromycin 16 μg/ml (Conc./MIC 1/2)
[26] = erythromycin 32 μg/ml (Conc./MIC 1)

SMILES: CC[C@H](C)[C@H](NC(=O)[C@H](CCCCN)NC(=O)[C@H](Cc1c[nH]c2ccccc12)NC(=O)[C@@H](N)CCCNC(=N)N)C(=O)N[C@@H](Cc1ccccc1)C(=O)N[C@@H](CCCCN)C(=O)N[C@@H](CCCCN)C(=O)N[C@H](C(=O)N[C@H](CCCCN)C(=O)N[C@@H](CCCCN)C(=O)N[C@@H](CC(C)C)C(=O)N[C@@H](CC(C)C)C(=O)N[C@@H](Cc1c[nH]cn1)C(=O)N[C@@H](CO)C(=O)N[C@@H](C)C(=O)N[C@@H](CCCCN)C(=O)N[C@@H](CCCCN)C(=O)N[C@@H](Cc1c[nH]c2ccccc12)C(N)=O)[C@@H](C)CC [PapMA-16, RWK IFK KIk KLL HSA KKW-NH2] (H-RWKIFKKI[dK]KLLHSAKKW-NH2; N-terminus assumed)
- Minimal inhibitory concentration MIC (E. coli [1]): 64 µg/mL (≈ 27.4 µM)
- Minimal inhibitory concentration MIC (MDREC 1229 [2]): 64 µg/mL (≈ 27.4 µM)
- Peptide MIC, peptide alone (MDREC 1229 [2]): 64 µg/mL
- Minimal inhibitory concentration MIC (P. aeruginosa): 64 µg/mL (≈ 27.4 µM)
- Minimal inhibitory concentration MIC (A. baumannii [3]): 32 µg/mL (≈ 13.7 µM)
- Peptide MIC, peptide alone (A. baumannii [3]): 32 µg/mL
- Minimal inhibitory concentration MIC (MDRAB 12035 [4]): 32 µg/mL (≈ 13.7 µM)
- Peptide MIC, peptide alone (MDRAB 12035 [4]): 32 µg/mL
- Minimal inhibitory concentration MIC (MDRST 8009): 64 µg/mL (≈ 27.4 µM)
- Minimal inhibitory concentration MIC (B. subtilis): >128 µg/mL
- Minimal inhibitory concentration MIC (S. epidermidis): >128 µg/mL
- Minimal inhibitory concentration MIC (S. aureus): >128 µg/mL
- Synergistic effect of antibacterial activity with existing antibiotics compared with PapMA-1 (E. coli [5]; E. coli and MDREC1229): higher level than the PapMA-1 peptide
- Antibiotic MIC, Erythromycin (E. coli [5]; erythromycin combined with peptide at 1 μg/ml): 128 µg/mL
- Antibiotic MIC, Erythromycin (E. coli [5]; erythromycin combined with peptide at 2 μg/ml): 32 µg/mL
- Antibiotic MIC, Erythromycin (E. coli [5]; erythromycin combined with peptide at 4 μg/ml): 16 µg/mL
- Antibiotic MIC, Erythromycin (E. coli [5]; erythromycin combined with peptide at 6 μg/ml): 2 µg/mL
- Antibiotic MIC, Erythromycin (E. coli [5]; erythromycin combined with peptide at 8 μg/ml): 2 µg/mL
- Antibiotic MIC, Erythromycin (E. coli [5]; erythromycin combined with peptide at 16 μg/ml): 0.25 µg/mL
- Antibiotic MIC, Erythromycin (E. coli [5]; erythromycin combined with peptide at 32 μg/ml): 0.125 µg/mL
- Antibiotic MIC, Erythromycin (E. coli [5]; erythromycin combined with peptide at 64 μg/ml): 0 µg/mL
- Antibiotic MIC, Linezolid (E. coli [5]; linezolid combined with peptide at 1 μg/ml): >128 µg/mL
- Antibiotic MIC, Linezolid (E. coli [5]; linezolid combined with peptide at 2 μg/ml): >128 µg/mL
- Antibiotic MIC, Linezolid (E. coli [5]; linezolid combined with peptide at 4 μg/ml): 32 µg/mL
- Antibiotic MIC, Linezolid (E. coli [5]; linezolid combined with peptide at 6 μg/ml): 16 µg/mL
- Antibiotic MIC, Linezolid (E. coli [5]; linezolid combined with peptide at 8 μg/ml): 16 µg/mL
- Antibiotic MIC, Linezolid (E. coli [5]; linezolid combined with peptide at 16 μg/ml): 8 µg/mL
- Antibiotic MIC, Linezolid (E. coli [5]; linezolid combined with peptide at 32 μg/ml): 4 µg/mL
- Antibiotic MIC, Linezolid (E. coli [5]; linezolid combined with peptide at 64 μg/ml): 0 µg/mL
- Antibiotic MIC, Vancomycin (E. coli [5]; vancomycin combined with peptide at 1 μg/ml): >128 µg/mL
- Antibiotic MIC, Vancomycin (E. coli [5]; vancomycin combined with peptide at 2 μg/ml): >128 µg/mL
- Antibiotic MIC, Vancomycin (E. coli [5]; vancomycin combined with peptide at 4 μg/ml): >128 µg/mL
- Antibiotic MIC, Vancomycin (E. coli [5]; vancomycin combined with peptide at 6 μg/ml): 32 µg/mL
- Antibiotic MIC, Vancomycin (E. coli [5]; vancomycin combined with peptide at 8 μg/ml): 16 µg/mL
- Antibiotic MIC, Vancomycin (E. coli [5]; vancomycin combined with peptide at 16 μg/ml): 8 µg/mL
- Antibiotic MIC, Vancomycin (E. coli [5]; vancomycin combined with peptide at 32 μg/ml): 4 µg/mL
- Antibiotic MIC, Vancomycin (E. coli [5]; vancomycin combined with peptide at 64 μg/ml): 0 µg/mL
- Synergistic effect of antibacterial activity with existing antibiotics compared with PapMA-1 (A. baumannii [6]; A. baumannii and MDRAB 12035): level similar to that of PapMA-1 peptide
- Antibiotic MIC, Erythromycin (A. baumannii [6]; [11]): 32 µg/mL
- Antibiotic MIC, Linezolid (A. baumannii [6]; [11]): >128 µg/mL
- Antibiotic MIC, Vancomycin (A. baumannii [6]; [11]): >128 µg/mL
- Antibiotic MIC, Erythromycin (A. baumannii [6]; [12]): 16 µg/mL
- Antibiotic MIC, Linezolid (A. baumannii [6]; [12]): >128 µg/mL
- Antibiotic MIC, Vancomycin (A. baumannii [6]; [12]): 128 µg/mL
- Antibiotic MIC, Erythromycin (A. baumannii [6]; [13]): 8 µg/mL
- Antibiotic MIC, Linezolid (A. baumannii [6]; [13]): 128 µg/mL
- Antibiotic MIC, Vancomycin (A. baumannii [6]; [13]): 64 µg/mL
- Antibiotic MIC, Erythromycin (A. baumannii [6]; [14]): 1 µg/mL
- Antibiotic MIC, Linezolid (A. baumannii [6]; [14]): 32 µg/mL
- Antibiotic MIC, Vancomycin (A. baumannii [6]; [14]): 32 µg/mL
- Antibiotic MIC, Erythromycin (A. baumannii [6]; [15]): 0.5 µg/mL
- Antibiotic MIC, Linezolid (A. baumannii [6]; [15]): 16 µg/mL
- Antibiotic MIC, Vancomycin (A. baumannii [6]; [15]): 16 µg/mL
- Antibiotic MIC, Erythromycin (A. baumannii [6]; [16]): 0.25 µg/mL
- Antibiotic MIC, Linezolid (A. baumannii [6]; [16]): 8 µg/mL
- Antibiotic MIC, Vancomycin (A. baumannii [6]; [16]): 8 µg/mL
- Antibiotic MIC, Erythromycin (A. baumannii [6]; [17]): 0 µg/mL
- Antibiotic MIC, Linezolid (A. baumannii [6]; [17]): 0 µg/mL
- Antibiotic MIC, Vancomycin (A. baumannii [6]; [17]): 0 µg/mL
- Antibiotic MIC, Erythromycin (A. baumannii [6]; [18]): 0 µg/mL
- Antibiotic MIC, Linezolid (A. baumannii [6]; [18]): 0 µg/mL
- Antibiotic MIC, Vancomycin (A. baumannii [6]; [18]): 0 µg/mL
- Peptide MIC (E. coli [7]; with Erythromycin […] (Conc./MIC 1)): 0 µg/mL
- Peptide MIC (E. coli [7]; with Linezolid […] (Conc./MIC 1)): 0 µg/mL
- Peptide MIC (E. coli [7]; with Vancomycin 1024 μg/ml (Conc./MIC 1)): 0 µg/mL
- Peptide MIC during treatment with antibiotic (MDREC 1229 [8]; erythromycin 32 μg/ml (Conc./MIC 1/8)): 4 µg/mL
- Peptide MIC during treatment with antibiotic (MDREC 1229 [8]; erythromycin 64 μg/ml (Conc./MIC 1/4)): 2 µg/mL
- Peptide MIC during treatment with antibiotic (MDREC 1229 [8]; erythromycin […] (Conc./MIC 1)): 0 µg/mL
- Peptide MIC during treatment with antibiotic (MDREC 1229 [8]; erythromycin […] (Conc./MIC 1/2)): 2 µg/mL
- Peptide MIC during treatment with antibiotic (MDREC 1229 [8]; [19]): 4 µg/mL
- Peptide MIC during treatment with antibiotic (MDREC 1229 [8]; [20]): 0 µg/mL
- Peptide MIC during treatment with antibiotic (MDREC 1229 [8]; linezolid […] (Conc./MIC 1/2)): 1 µg/mL
- Peptide MIC during treatment with antibiotic (MDREC 1229 [8]; linezolid […] (Conc./MIC 1/4)): 2 µg/mL
- Peptide MIC during treatment with antibiotic (MDREC 1229 [8]; [21]): 2 µg/mL
- Peptide MIC during treatment with antibiotic (MDREC 1229 [8]; [22]): 1 µg/mL
- Peptide MIC during treatment with antibiotic (MDREC 1229 [8]; vancomycin […] (Conc./MIC 1/4)): 4 µg/mL
- Peptide MIC during treatment with antibiotic (MDREC 1229 [8]; vancomycin […] (Conc./MIC 1/8)): 8 µg/mL
- Peptide MIC during treatment with antibiotic (A. baumannii [9]; [23]): 4 µg/mL
- Peptide MIC during treatment with antibiotic (A. baumannii [9]; [24]): 4 µg/mL
- Peptide MIC during treatment with antibiotic (A. baumannii [9]; [25]): 2 µg/mL
- Peptide MIC during treatment with antibiotic (A. baumannii [9]; [26]): 0 µg/mL
- Peptide MIC during treatment with antibiotic (A. baumannii [9]; linezolid 32 μg/ml (Conc./MIC 1/8)): 8 µg/mL
- Peptide MIC during treatment with antibiotic (A. baumannii [9]; linezolid 64 μg/ml (Conc./MIC 1/4)): 8 µg/mL
- Peptide MIC during treatment with antibiotic (A. baumannii [9]; linezolid […] (Conc./MIC 1)): 0 µg/mL
- Peptide MIC during treatment with antibiotic (A. baumannii [9]; linezolid […] (Conc./MIC 1/2)): 4 µg/mL
- Peptide MIC during treatment with antibiotic (A. baumannii [9]; [21]): 0.25 µg/mL
- Peptide MIC during treatment with antibiotic (A. baumannii [9]; [22]): 0 µg/mL
- Peptide MIC during treatment with antibiotic (A. baumannii [9]; vancomycin […] (Conc./MIC 1/4)): 0.5 µg/mL
- Peptide MIC during treatment with antibiotic (A. baumannii [9]; vancomycin […] (Conc./MIC 1/8)): 2 µg/mL
- Peptide MIC during treatment with erythromycin (MDRAB 12035 [10]; [23]): 4 µg/mL
- Peptide MIC during treatment with erythromycin (MDRAB 12035 [10]; [24]): 4 µg/mL
- Peptide MIC during treatment with erythromycin (MDRAB 12035 [10]; [25]): 4 µg/mL
- Peptide MIC during treatment with erythromycin (MDRAB 12035 [10]; [26]): 0 µg/mL
- Peptide MIC during treatment with linezolid (MDRAB 12035 [10]; [19]): 4 µg/mL
- Peptide MIC during treatment with linezolid (MDRAB 12035 [10]; [20]): 0 µg/mL
- Peptide MIC during treatment with linezolid (MDRAB 12035 [10]; linezolid […] (Conc./MIC 1/2)): 1 µg/mL
- Peptide MIC during treatment with linezolid (MDRAB 12035 [10]; linezolid […] (Conc./MIC 1/4)): 4 µg/mL
- Peptide MIC during treatment with vancomycin (MDRAB 12035 [10]; [21]): 2 µg/mL
- Peptide MIC during treatment with vancomycin (MDRAB 12035 [10]; [22]): 1 µg/mL
- Peptide MIC during treatment with vancomycin (MDRAB 12035 [10]; vancomycin […] (Conc./MIC 1/4)): 4 µg/mL
- Peptide MIC during treatment with vancomycin (MDRAB 12035 [10]; vancomycin […] (Conc./MIC 1/8)): 8 µg/mL
